Experiments:
[1] = molecular target: T1, human vasopressin V1a receptor subtype (Homo sapiens, UniProt P37288); experiment: Vasopressin binding in CHO cell membranes expressing human vasopressin V1a subtype receptors ([3H]Manning ligand); conditions: for inhibition at 0.1 µM: 100 nM, values without parentheses; for IC50: values in parentheses
T1 construct: host or cells: CHO cells, stably transfected (pZeoSV vector for the Thibonnier cells); membranes
Excerpt: Vasopressin Binding in Chinese Hamster Ovary Cell Membranes Expressing Human Vasopressin V1a Subtype Receptors
Chinese hamster ovary cells (CHO cells) stably transfected with the human vasopressin V1a subtype receptors were either obtained from Biosignal Inc., 1744 rue Williams, Montreal, Quebec, Canada or obtained from M. Thibonnier, Case Western Reserve University School of Medicine, Cleveland, Ohio. A. Passaging and Amplification of Cells: CHO cells transfected with the human vasopressin V1a subtype receptors obtained from M. Thibonnier (pZeoSV vector) are allowed to grow to confluency (approx. >90%) in T-150 flasks under sterile conditions, in a cell culture medium of F-12 Nutrient Mixture (HAM) with L-glutamine (Gibco Cat. #11765-054) containing 15 mM HEPES (Gibco Cat. #15630-080), 1% antibiotic/antimycotic (add 5 mL 100×, Gibco Cat. #15240-062 per 500 mL F-12), 250 μg/mL Zeocin (add 1.25 mL of 100 mg/mL Invitrogen R-250-01 per 500 mL F-12) and 10% Fetal Bovine Serum (Qualified, heat inactivated, Gibco Cat. #16140-063). The medium is removed by aspiration and the cells are washed with 10 mL of Hank's Balanced Salt solution (Gibco Cat. #14175-095). The salt solution is removed by aspiration and the cells are trypsinized with 5 mL of trypsin-EDTA (0.05% trypsin, 0.53 mM EDTA-4Na, Gibco Cat. #25300-070) for 1 min. The trypsin is removed by aspiration and the cells dislodged by tapping. Cell Culture medium (eg, 30 mL for 1:30 split) is immediately added and mixed well to inactivate trypsin. 1 mL of detached cells is added to new culture flasks containing fresh cell culture medium (eg, into 25 mL per T-150 flask), and mixed gently. The cells are incubated at 37° C. in 5% CO2. The medium is changed at 3 to 4 days interval (or as appropriate). The cells grow to confluency (approx. >75%–95%) within 7–8 days. All steps are done under sterile conditions. B. Membrane Preparation: The cells are washed twice gently with Hank's Balanced Salt solution (e.g.,. use 10 mL per T-150 flask). The excess is removed and the cells are bathed for 15–30 min. in an enzyme-free Cell Dissociation Buffer (e.g. use 8 mL Hank's Based, Gibco Cat. #13150-016 per T-150 flask) until the cells are loosened. The contents are transferred to centrifuge tubes (50 mL size) kept in ice bath. All subsequent steps are done at 4° C. The tubes are centrifuged at 300×g for 15 min (1380 rpm on SORVAL, Model RT6000D, using rotor for 50 mL tubes). The supernatant is discarded and the cells suspended in homogeneizing buffer (10 mM Tris-HCl containing 0.25 M sucrose and 1 mM EDTA, pH 7.4) ensuring that the volume of the buffer is about ten times the volume of the cell pellet. The cells are pooled into a centrifuge tube (50 mL) and homogenized with Polytron at setting 6 for 10 sec. The homogenate is transferred into a Potter-Elvjehm homogenizer and homogenized with 3 strokes. The homogenate is centrifuged at 1500×g for 10 min at 4° C. (3100 rpm using SORVAL, model RT6000D, using rotor for 50 mL tubes). The pellet is discarded. The supernatant is centrifuged at 100,000×g for 60 min. at 4° C. (Beckman L8-80M ultracentrifuge; spin at 37,500 rpm with rotor type 70 Ti for 50 mL tubes; 38,000 rpm with type 80Ti for 15 mL tubes; or 35,800 rpm with rotor type 45Ti). The supernantant is discarded and the pellet suspended in 3 to 4 mL of Tris buffer (50 mM TRIS-HCl, pH 7.4). The protein content is estimated by the Bradford or Lowry method. The volume of the membrane suspension is adjusted with the membrane buffer (50 mM Tris-HCl containing 0.1% BSA and 0.1 mM PMSF) to give 3.0 mg/mL (or as appropriate) of protein. The membranes are aliquoted and stored at −70° C. C. […]

T1 sequence (P37288 whole entry): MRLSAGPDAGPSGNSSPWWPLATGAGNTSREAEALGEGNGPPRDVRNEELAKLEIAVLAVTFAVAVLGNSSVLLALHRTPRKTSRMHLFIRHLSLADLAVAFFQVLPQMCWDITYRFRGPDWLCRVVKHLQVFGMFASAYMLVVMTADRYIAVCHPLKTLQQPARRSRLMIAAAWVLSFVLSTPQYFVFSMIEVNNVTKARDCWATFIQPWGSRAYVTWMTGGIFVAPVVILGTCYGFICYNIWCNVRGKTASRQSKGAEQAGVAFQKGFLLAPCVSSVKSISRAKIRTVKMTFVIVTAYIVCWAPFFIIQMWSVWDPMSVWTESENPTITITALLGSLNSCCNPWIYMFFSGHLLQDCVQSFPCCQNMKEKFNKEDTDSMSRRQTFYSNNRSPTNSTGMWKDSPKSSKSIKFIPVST

| melting point | inhibition at 0.1 µM [1] | IC50 [1] | Compound |
| --- | --- | --- | --- |
| 153 to 154 °C | 23% |  | CC1=C(c2ccc(C(=O)N3Cc4cccn4Cc4ccccc43)cc2)C(C)CCC1 (stereo not shown) [Example 19, (10,11-Dihydro-5H-pyrrolo[2,1-c][1,4]benzodiazepin-10-yl)-[4-(2,6-dimethyl-cyclohex-1-en-1-yl)-phenyl]-methanone] |
| 119 to 120 °C |  | 45.7 nM | CC1=C(c2ccc(C(=O)N3Cc4cccn4Cc4ccccc43)cc2)CCCC1 [Example 7, (10,11-Dihydro-5H-pyrrolo[2,1-c][1,4]benzodiazepin-10-yl)-[4-(2-methyl-cyclohex-1-en-1-yl)-phenyl]-methanone] |
| 132 to 133 °C | 27% |  | Cc1cc(C(=O)N2Cc3cccn3Cc3ccccc32)ccc1C1=CCCCC1C (stereo not shown) [Example 29, (10,11-Dihydro-5H-pyrrolo[2,1-c][1,4]benzodiazepin-10-yl)-[3-methyl-4-(6-methyl-cyclohex-1-en-1-yl)-phenyl]-methanone] |
| 176 to 177 °C | 48% |  | Cc1cc(C(=O)N2Cc3cccn3Cc3ccccc32)ccc1C1=CC(=O)CCC1 [Example 39, 3-[4-(10,11-Dihydro-5H-pyrrolo[2,1-c][1,4]benzodiazepine-10-carbonyl)-2-methyl-phenyl]-cyclohex-2-en-1-one] |
| 133 to 135 °C | 6% |  | CC1=C(c2ccc(C(=O)N3Cc4cccn4Cc4ccccc43)cc2C)C(C)CCC1 (stereo not shown) [Example 33, (10,11-Dihydro-5H-pyrrolo[2,1-c][1,4]benzodiazepin-10-yl)-[4-(2,6-dimethyl-cyclohex-1-en-1-yl)-3-methyl-phenyl]-methanone] |
| 127 to 128 °C | 85% |  | CO[C@@H]1CCCC(c2ccc(C(=O)N3Cc4cccn4Cc4ccccc43)cc2C)=C1C [Example 44, 10-{4-[(3R)-3-Methoxy-2-methylcyclohex-1-en-1-yl]-3-methylbenzoyl}-10,11-dihydro-5H-pyrrolo[2,1-c][1,4]benzodiazepine] |
| 95 to 97 °C | 27% |  | CC1=C(c2ccc(C(=O)N3Cc4cccn4Cc4ccccc43)cc2)CCCC1=O [Example 26, 3-[4-(10,11-Dihydro-5H-pyrrolo[2,1-c][1,4]benzodiazepine-10-carbonyl)-phenyl]-2-methyl-cyclohex-2-en-1-one] |

Continued, molecule first:

| Compound | melting point | inhibition at 0.1 µM [1] | IC50 [1] |
| --- | --- | --- | --- |
| CC1(C)C=C(c2ccc(C(=O)N3Cc4cccn4Cc4ccccc43)cc2)CC(C)(C)C1 [Example 23, (10,11-Dihydro-5H-pyrrolo[2,1-c][1,4]benzodiazepin-10-yl)-[4-(3,3,5,5-tetramethyl-cyclohex-1-en-1-yl)-phenyl]-methanone] | 142 to 143 °C | -10% |  |
| COc1cc(C2=CCCCC2)c(Cl)cc1C(=O)N1Cc2cccn2Cc2ccccc21 [Example 1, 10-(5-Chloro-4-cyclohex-1-en-1-yl-2-methoxybenzoyl)-10,11-dihydro-5H-pyrrolo[2,1-c][1,4]benzodiazepine] | 92 to 98 °C |  | 232 nM |
| Cc1cc(C(=O)N2Cc3cccn3Cc3ccccc32)ccc1C1=CCC2CC1C2(C)C (stereo not shown) [Example 36, (10,11-Dihydro-5H-pyrrolo[2,1-c][1,4]benzodiazepin-10-yl)-[4-(6,6-dimethyl-bicyclo[3.1.1]hept-2-en-2-yl)-3-methyl-phenyl]-methanone] | 187 °C | 11% |  |
| Cc1cc(C(=O)N2Cc3cccn3Cc3ccccc32)ccc1C1=CCC2CCC1C2 (stereo not shown) [Example 35, (10,11-Dihydro-5H-pyrrolo[2,1-c][1,4]benzodiazepin-10-yl)-(4-bicyclo[3.2.1]oct-2-en-2-yl-3-methyl-phenyl)-methanone] | 168 to 169 °C | 36% |  |
| Cc1cc(C(=O)N2Cc3cccn3Cc3ccccc32)ccc1C1=CC(C)(C)CC(C)(C)C1 [Example 37, (10,11-Dihydro-5H-pyrrolo[2,1-c][1,4]benzodiazepin-10-yl)-[3-methyl-4-(3,3,5,5-tetramethyl-cyclohex-1-en-1-yl)-phenyl]-methanone] | 158 °C | 10% |  |
| Cc1cc(C(=O)N2Cc3cccn3Cc3ccccc32)ccc1C1=CCCCC1 [Example 2, (10,11-Dihydro-5H-pyrrolo[2,1-c][1,4]benzodiazepin-10-yl)-(4-cyclohex-1-en-1-yl-3-methyl-phenyl)-methanone] | 182 to 183 °C | 74% |  |
| CC1(C)C2CC=C(c3ccc(C(=O)N4Cc5cccn5Cc5ccccc54)cc3)C1C2 (stereo not shown) [Example 22, (10,11-Dihydro-5H-pyrrolo[2,1-c][1,4]benzodiazepin-10-yl)-[4-(6,6-dimethyl-bicyclo[3.1.1]hept-2-en-2-yl)-phenyl]-methanone] | 118 to 119 °C | 13% |  |
| Cc1cc(C(=O)N2Cc3cccn3Cc3ccccc32)ccc1C1=CCCCC1(C)C [Example 30, (10,11-Dihydro-5H-pyrrolo[2,1-c][1,4]benzodiazepin-10-yl)-[4-(6,6-dimethyl-cyclohex-1-en-1-yl)-3-methyl-phenyl]-methanone] | 131 °C | 18% |  |
| CC1(C)CCCC=C1c1ccc(C(=O)N2Cc3cccn3Cc3ccccc32)cc1 [Example 17, (10,11-Dihydro-5H-pyrrolo[2,1-c][1,4]benzodiazepin-10-yl)-[4-(6,6-dimethyl-cyclohex-1-en-1-yl)-phenyl]-methanone] | 118 °C | 51% |  |
| Cc1cc(C(=O)N2Cc3cccn3Cc3ccccc32)ccc1C1=CCCc2ccccc21 [Example 3, (10,11-Dihydro-5H-pyrrolo[2,1-c][1,4]benzodiazepin-10-yl)-[4-(3,4-dihydro-naphthalen-1-yl)-3-methyl-phenyl]-methanone] | 108 °C |  | 432 nM |

Source: patent US7022699B2, “Cyclohexenyl phenyl diazepines vasopressin and oxytocin receptor modulators” (Wyeth, priority 2001, dated 2006)
